The EC50 is the concentration giving half of the maximal effect.

The subject of this assay is endogenous cellular STAT1 (phosphorylated at Tyr701) in NCI-H1373 cells. Briefly: Phospho-STAT1 (Tyr701) LANCE Ultra TR-FRET Detection Assay. It counts as cell-based. Particulars: Homo sapiens, NCI-H1373, 48 h, phospho-STAT1 (Tyr701) induction, read-out: NH1373 pSTAT1 EC50.
On to `C[C@@H](CC(=O)Cn1ccc2cc(-c3ncc(C(F)(F)F)cn3)c(F)cc2c1=O)Nc1cn[nH]c(=O)c1C(F)(F)F` [Example 90, 7-fluoro-2-[(4S)-2-oxo-4-[[6-oxo-5-(trifluoromethyl)-1H-pyridazin-4-yl]amino]pentyl]-6-[5-(trifluoromethyl)pyrimidin-2-yl]isoquinolin-1-one], for which the EC50 came to 52 nM.

As for `O=c1[nH]ncc(N[C@H]2CCC[C@@H](Cn3ccc4cc(-c5ccc(Cl)cn5)c(F)cc4c3=O)C2)c1C(F)(F)F` [Example 280, 6-(5-chloropyridin-2-yl)-7-fluoro-2-(((1R,3S)-3-((6-oxo-5-(trifluoromethyl)-1,6-dihydropyridazin-4-yl)amino)cyclohexyl)methyl)isoquinolin-1(2H)-one], the EC50 was 34.8 nM. In the case of `[2H]C([2H])([2H])OC[C@@H](CCCn1ccc2cc(-c3ncc(C(F)F)c(N)n3)c(F)cc2c1=O)Nc1cn[nH]c(=O)c1C(F)(F)F` [Example 429, 6-[4-amino-5-(difluoromethyl)pyrimidin-2-yl]-7-fluoro-2-[(4R)-4-[[6-oxo-5-(trifluoromethyl)-1H-pyridazin-4-yl]amino]-5-(trideuteriomethoxy)pentyl]isoquinolin-1-one] it was 7.21 nM. In the case of `O=c1[nH]ncc(N[C@H](CCCn2cnc3cc(-c4cnc(C(F)(F)F)cn4)c(F)cc3c2=O)COC(F)F)c1C(F)(F)F` [Example 420, (R)-3-(5-(difluoromethoxy)-4-((6-oxo-5-(trifluoromethyl)-1,6-dihydropyridazin-4-yl)amino)pentyl)-6-fluoro-7-(5-(trifluoromethyl)pyrazin-2-yl)quinazolin-4(3H)-one] it was 9.41 nM; in that of `[2H]C([2H])([2H])OC[C@@H](CCCn1ccc2cc(-c3ccc(C(F)(F)F)cn3)c(F)cc2c1=O)Nc1cn[nH]c(=O)c1C(F)(F)F` [Example 434], 13 nM. In the case of `C[C@@H](CCCn1ccc2cc(-c3ncc(-c4ccccc4F)cn3)c(F)cc2c1=O)Nc1cn[nH]c(=O)c1C(F)(F)F` [Example 336, (S)-7-fluoro-6-(5-(2-fluorophenyl)pyrimidin-2-yl)-2-(4-((6-oxo-5-(trifluoromethyl)-1,6-dihydropyridazin-4-yl)amino)pentyl)isoquinolin-1(2H)-one] it was 95.1 nM; in that of `CC(CCCn1ccc2cc(-c3ncc(C(F)(F)F)cn3)c(F)cc2c1=O)Oc1cn[nH]c(=O)c1C(F)(F)F` (centres unmarked) [Example 136, 7-fluoro-2-[4-[[6-oxo-5-(trifluoromethyl)-1H-pyridazin-4-yl]oxy]pentyl]-6-[5-(trifluoromethyl)pyrimidin-2-yl]isoquinolin-1-one], 75.9 nM. As for `C[C@@H](CCCn1ccc2cc(-c3ncc(Cl)cn3)c(F)cc2c1=O)Nc1cn[nH]c(=O)c1C(F)(F)F` [Example 98, (S)-6-(5-chloropyrimidin-2-yl)-7-fluoro-2-(4-((6-oxo-5-(trifluoromethyl)-1,6-dihydropyridazin-4-yl)amino)pentyl)isoquinolin-1(2H)-one], the EC50 was 9.67 nM. In the case of `C[C@@H](CCCn1cnc2cc(-c3ncc4c(F)c[nH]c4n3)c(F)cc2c1=O)Nc1cn[nH]c(=O)c1C(F)(F)F` [Example 64, 6-fluoro-7-(5-fluoro-7H-pyrrolo[2,3-d]pyrimidin-2-yl)-3-[(4S)-4-[[6-oxo-5-(trifluoromethyl)-1H-pyridazin-4-yl]amino]pentyl]quinazolin-4-one] it was 37.3 nM; in that of `C[C@@H](CCCn1ccc2cc(-c3ncc4ccsc4n3)c(F)cc2c1=O)Nc1cn[nH]c(=O)c1C(F)(F)F` [Example 292, (S)-7-fluoro-2-(4-((6-oxo-5-(trifluoromethyl)-1,6-dihydropyridazin-4-yl)amino)pentyl)-6-(thieno[2,3-d]pyrimidin-2-yl)isoquinolin-1(2H)-one], 16 nM; in that of `O=c1[nH]ncc(N[C@H](CCCn2cnc3cc(-c4ncc(C(F)F)cn4)c(F)cc3c2=O)C2CC2)c1C(F)(F)F` [Example 468, 3-[(4R)-4-cyclopropyl-4-[[6-oxo-5-(trifluoromethyl)-1H-pyridazin-4-yl]amino]butyl]-7-[5-(difluoromethyl)pyrimidin-2-yl]-6-fluoro-quinazolin-4-one], 42.5 nM. On to `O=c1[nH]ncc(N[C@H](CCCn2ccc3cc(-c4ncc(C(F)(F)F)cn4)c(F)c(F)c3c2=O)COC(F)F)c1C(F)(F)F` [Example 375, (R)-2-(5-(difluoromethoxy)-4-((6-oxo-5-(trifluoromethyl)-1,6-dihydropyridazin-4-yl)amino)pentyl)-7,8-difluoro-6-(5-(trifluoromethyl)pyrimidin-2-yl)isoquinolin-1(2H)-one], for which the EC50 was 3.84 nM. In the case of `C[C@@H](CCCn1ccc2cc(-c3ncc(F)c(N)n3)c(F)cc2c1=O)Nc1cn[nH]c(=O)c1C(F)(F)F` [Example 103, 6-(4-amino-5-fluoro-pyrimidin-2-yl)-7-fluoro-2-[(4S)-4-[[6-oxo-5-(trifluoromethyl)-1H-pyridazin-4-yl]amino]pentyl]isoquinolin-1-one] it was 39.8 nM; in that of `C[C@@H](CCCn1ccc2cc(-n3cc(C(F)(F)F)cn3)ccc2c1=O)Nc1cn[nH]c(=O)c1C(F)(F)F` [Example 173, (S)-2-(4-((6-oxo-5-(trifluoromethyl)-1,6-dihydropyridazin-4-yl)amino)pentyl)-6-(4-(trifluoromethyl)-1H-pyrazol-1-yl)isoquinolin-1(2H)-one], 270 nM; in that of `CCNc1cnc(-c2cc3ccn(C[C@@H]4CCC[C@H](Nc5cn[nH]c(=O)c5C(F)(F)F)C4)c(=O)c3cc2F)cn1` [Example 277, 6-(5-(ethylamino)pyrazin-2-yl)-7-fluoro-2-(((1R,3S)-3-((6-oxo-5-(trifluoromethyl)-1,6-dihydropyridazin-4-yl)amino)cyclohexyl)methyl)isoquinolin-1(2H)-one], 348 nM.

With `O=c1[nH]ncc(N[C@H]2CCC[C@@H]2CCn2cnc3cc(-c4ncc(C(F)(F)F)cn4)c(F)cc3c2=O)c1C(F)(F)F` [Example 463, 6-fluoro-3-(2-((1R,2S)-2-((6-oxo-5-(trifluoromethyl)-1,6-dihydropyridazin-4-yl)amino)cyclopentyl)ethyl)-7-(5-(trifluoromethyl)pyrimidin-2-yl)quinazolin-4(3H)-one], the EC50 worked out at 9.47 nM. In the case of `CC(CCCn1ccc2cc(-c3ccc(C(F)(F)F)cn3)ccc2c1=O)Nc1cn[nH]c(=O)c1C(F)(F)F` (centres unmarked) [Example 1, 2-(4-((6-oxo-5-(trifluoromethyl)-1,6-dihydropyridazin-4-yl)amino)pentyl)-6-(5-(trifluoromethyl)pyridin-2-yl)isoquinolin-1(2H)-one] it was 97.8 nM; in that of `Nc1nc(-c2cc3ncn(CCC[C@H](COC(F)F)Nc4cn[nH]c(=O)c4C(F)(F)F)c(=O)c3cc2F)ccc1C(F)F` [Example 395, (R)-7-(6-amino-5-(difluoromethyl)pyridin-2-yl)-3-(5-(difluoromethoxy)-4-((6-oxo-5-(trifluoromethyl)-1,6-dihydropyridazin-4-yl)amino)pentyl)-6-fluoroquinazolin-4(3H)-one], 30.4 nM; in that of `C[C@@H](CCCn1ccc2cc(-c3ncc(C(F)(F)F)cc3Cl)c(F)cc2c1=O)Nc1cn[nH]c(=O)c1C(F)(F)F` [Example 326, (S)-6-(3-chloro-5-(trifluoromethyl)pyridin-2-yl)-7-fluoro-2-(4-((6-oxo-5-(trifluoromethyl)-1,6-dihydropyridazin-4-yl)amino)pentyl)isoquinolin-1(2H)-one], 113 nM. In the case of `Nc1nc(-c2cc3ccn(CCC[C@@H](Nc4cn[nH]c(=O)c4C(F)(F)F)C4CC4)c(=O)c3cc2F)ncc1C(F)F` [Example 147] it was 39.1 nM; in that of `Nc1nc(-c2cc3ncn(CCC[C@@H](Nc4cn[nH]c(=O)c4C(F)(F)F)C4CC4)c(=O)c3cc2F)cnc1C(F)(F)F` [Example 460, (R)-7-(6-amino-5-(trifluoromethyl)pyrazin-2-yl)-3-(4-cyclopropyl-4-((6-oxo-5-(trifluoromethyl)-1,6-dihydropyridazin-4-yl)amino)butyl)-6-fluoroquinazolin-4(3H)-one], 69.9 nM; in that of `O=c1[nH]ncc(N[C@H](CCCn2cnc3cc(-c4ncc(Cl)cn4)c(F)cc3c2=O)COC(F)F)c1C(F)(F)F` [Example 394, (R)-7-(5-chloropyrimidin-2-yl)-3-(5-(difluoromethoxy)-4-((6-oxo-5-(trifluoromethyl)-1,6-dihydropyridazin-4-yl)amino)pentyl)-6-fluoroquinazolin-4(3H)-one], 1.22 nM. In the case of `CC[C@@H](CCCn1ccc2cc(-c3cnc(C(F)(F)F)c(N)n3)c(F)cc2c1=O)Nc1cn[nH]c(=O)c1C(F)(F)F` [Example 339, (S)-6-(6-amino-5-(trifluoromethyl)pyrazin-2-yl)-7-fluoro-2-(4-((6-oxo-5-(trifluoromethyl)-1,6-dihydropyridazin-4-yl)amino)hexyl)isoquinolin-1(2H)-one] it was 17.4 nM. For the molecule `COc1cnc(-c2cc3ncn(CCC[C@H](C)Nc4cn[nH]c(=O)c4C(F)(F)F)c(=O)c3cc2F)nc1NCC(F)F` [Example 159, 7-[4-(2,2-difluoroethylamino)-5-methoxy-pyrimidin-2-yl]-6-fluoro-3-[(4S)-4-[[6-oxo-5-(trifluoromethyl)-1H-pyridazin-4-yl]amino]pentyl]quinazolin-4-one], the EC50 is 283 nM. In the case of `CC(C)(O)[C@@H](CCCn1ccc2cc(-c3ncc(C(F)(F)F)cn3)c(F)cc2c1=O)Nc1cn[nH]c(=O)c1C(F)(F)F` [Example 73, 7-fluoro-2-[(4R)-5-hydroxy-5-methyl-4-[[6-oxo-5-(trifluoromethyl)-1H-pyridazin-4-yl]amino]hexyl]-6-[5-(trifluoromethyl)pyrimidin-2-yl]isoquinolin-1-one] it was 734 nM.

With `O=c1[nH]ncc(N[C@H]2CCC[C@@H](Cn3ccc4nc(-c5ccc(C(F)(F)F)cn5)ccc4c3=O)C2)c1C(F)(F)F` [Example 273, 6-(((1R,3S)-3-((6-oxo-5-(trifluoromethyl)-1,6-dihydropyridazin-4-yl)amino)cyclohexyl)methyl)-2-(5-(trifluoromethyl)pyridin-2-yl)-1,6-naphthyridin-5(6H)-one], the EC50 worked out at 10000 nM.

The values above are taken from US12459922B2 (Gilead Sciences, Inc., priority 2022, dated 2025).
